Each structure is given as a SMILES string. Active and inactive are the calls of the source.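 How the source made its calls: active means EC50 at or below 30 µM together with a response span of at least a set limit; inactive means the rest.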 Where only a bound is given, the exact number is not on record here.

Sequence of GTPase HRas (Homo sapiens) (P01112 whole entry, looked up): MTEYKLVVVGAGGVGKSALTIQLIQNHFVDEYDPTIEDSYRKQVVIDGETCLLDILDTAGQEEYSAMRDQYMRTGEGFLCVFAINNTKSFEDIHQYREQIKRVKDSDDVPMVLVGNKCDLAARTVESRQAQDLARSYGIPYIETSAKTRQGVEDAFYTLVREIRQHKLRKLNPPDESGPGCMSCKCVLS

The first assay has as its target GTPase HRas (Homo sapiens) (UniProt P01112). Put plainly: inhibition of fluorescent GTP binding to activated Ras – biochemical, pyrazoline analogs, multiplex bead flow cytometry, SAR follow-up (AID 2050). Conditions: GST-Ras beads, Bodipy-FL-GTP binding. In general terms: A flow cytometer gives signals particle by particle.
For orientation: EC50 means the midpoint of the concentration-response curve. As for `COc1ccc(C2=NN(c3ccc(Cl)c(Cl)c3)C(c3ccc(OC)cc3)C2)cc1` (centres undefined), the EC50 was > 30 µM (inactive).
The same measure, in the same setting: as for `COc1ccc(C2CC(c3cccc(Cl)c3)=NN2c2ccc(S(N)(=O)=O)cc2)cc1` (centres undefined), the figure is > 30 µM (inactive).
On to `O=S(=O)(O)c1ccc(N2N=C(c3ccccc3)CC2c2ccccc2)cc1` (centres undefined), for which the EC50 was > 30 µM (inactive).
On the same count and under the same terms, as for `COc1ccc(C2CC(c3ccccc3)=NN2c2ccc(Cl)c(C(=O)O)c2)cc1` (centres undefined), the figure is > 30 µM (inactive); as for `CN(C)c1ccc(C2CC(c3ccc(Cl)cc3)=NN2c2ccccc2)cc1` (centres undefined), > 30 µM (inactive); as for `NS(=O)(=O)c1ccc(N2N=C(c3ccccc3)CC2c2ccccc2Cl)cc1` (centres undefined), > 30 µM (inactive).
`COc1ccc(C2=NN(c3ccccc3F)C(c3ccc(F)cc3)C2)cc1` (centres undefined): the EC50 is > 30 µM (inactive).
As for `Clc1ccc(N2N=C(c3ccccc3)CC2c2ccccc2)cc1` (centres undefined), the EC50 was > 30 µM (inactive).
As for `COc1ccc(C2CC(c3cccc(N(C)C)c3)=NN2c2ccc(S(N)(=O)=O)cc2)cc1` (centres undefined), the EC50 is > 30 µM (inactive).
`Fc1ccc(C2=NN(c3cccc(Br)c3)C(c3ccccc3)C2)cc1` (centres undefined): the EC50 is > 30 µM (inactive).
Take `FC(F)(F)c1cccc(N2N=C(c3ccc(Cl)cc3)CC2c2ccccc2Cl)c1` (centres undefined): the EC50 is > 30 µM (inactive).
For the compound `COc1ccc(C2CC(c3ccc(F)cc3)=NN2c2cc(Cl)ccc2Cl)cc1` (centres undefined), the EC50 is > 30 µM (inactive).
As for `COc1ccccc1N1N=C(c2ccccc2)CC1c1ccccc1` (centres undefined), the EC50 was > 30 µM (inactive).
In the case of `COc1ccc(C2=NN(c3ccccc3)C(c3ccc(Cl)cc3)C2)cc1` (centres undefined), the EC50 result was “inactive”.
`COc1ccc(C2CC(c3ccc(F)cc3)=NN2c2ccc(S(N)(=O)=O)cc2)cc1` (centres undefined): the EC50 was > 30 µM (inactive).
Regarding `O=[N+]([O-])c1ccc(N2N=C(c3ccccc3)CC2c2ccccc2)cc1` (centres undefined), the EC50 was > 30 µM (inactive).
`COc1ccc(C2CC(C)=NN2c2ccc(S(N)(=O)=O)cc2)cc1` (centres undefined): the EC50 is > 30 µM (inactive).
Same read-out and setting: as for `Cc1onc(-c2ccccc2)c1-c1ccc(S(N)(=O)=O)cc1`, the figure is > 30 µM (inactive); as for `Cc1cccc(C2CC(c3ccccc3)=NN2c2ccc(S(N)(=O)=O)cc2)c1` (centres undefined), > 30 µM (inactive).
Same read-out and setting: the value for `CN(C)c1ccc(C2CC(c3ccccc3)=NN2c2ccc([N+](=O)[O-])cc2)cc1` (centres undefined) was > 30 µM (inactive).
As to `CN(C)c1ccc(C2CC(c3ccccc3)=NN2c2ccccc2)cc1` (centres undefined), the EC50 was > 30 µM (inactive).
The same measure, in the same setting: as for `COc1ccc(C2CC(c3ccccc3OC)=NN2c2ccc(S(N)(=O)=O)cc2)cc1` (centres undefined), the figure is > 30 µM (inactive).
The same measure, in the same setting: as for `COc1ccc(C2CC(c3ccc(C(F)(F)F)cc3)=NN2c2ccc(S(N)(=O)=O)cc2)cc1` (centres undefined), the figure is > 30 µM (inactive).
`Cc1ccccc1N1N=C(c2ccccc2)CC1c1ccc(N(C)C)cc1` (centres undefined): the EC50 was > 30 µM (inactive).
Regarding `COc1ccc(C2CC(c3ccccc3F)=NN2c2ccc(S(N)(=O)=O)cc2)cc1` (centres undefined), the EC50 was > 30 µM (inactive).
Consider `COc1ccc(C2CC(c3ccncc3)=NN2c2ccc(S(N)(=O)=O)cc2)cc1` (centres undefined), for which the EC50 is > 30 µM (inactive).
Take `COc1ccc(C2CC(c3ccccc3)=NN2c2ccc(S(N)(=O)=O)cc2)cc1OC` (centres undefined): the EC50 was > 30 µM (inactive).
Take `COc1ccc(C2CC(c3ccc(Br)cc3)=NN2c2ccc(S(N)(=O)=O)cc2)cc1` (centres undefined): the EC50 is > 30 µM (inactive).
In the case of `COc1ccc(C2CC(C(C)(C)C)=NN2c2ccc(S(N)(=O)=O)cc2)cc1` (centres undefined), the EC50 was > 30 µM (inactive).
Regarding `COc1ccccc1C1CC(c2ccccc2)=NN1c1ccccc1` (centres undefined), the EC50 was > 30 µM (inactive).
Turning to `COc1ccc(C2CC(C3CCCCC3)=NN2c2ccc(S(N)(=O)=O)cc2)cc1` (centres undefined), the EC50 is > 30 µM (inactive).
Take `COc1ccc(C2CC(c3cccs3)=NN2c2ccc(S(N)(=O)=O)cc2)cc1` (centres undefined): the EC50 was > 30 µM (inactive).
`FC(F)(F)c1ccccc1C1CC(c2ccc(Br)cc2)=NN1c1ccccc1` (centres undefined): the EC50 is > 30 µM (inactive).
In the case of `Cc1ccc(C2CC(c3ccccc3)=NN2c2ccc(S(N)(=O)=O)cc2)cc1` (centres undefined), the EC50 is > 30 µM (inactive).
On the same count and under the same terms, the value for `O=[N+]([O-])c1ccc(N2N=C(c3ccccc3)CC2c2ccc(O)cc2)cc1` (centres undefined) was > 30 µM (inactive); that for `O=[N+]([O-])c1cccc(C2CC(c3ccccc3)=NN2c2ccccc2)c1` (centres undefined) was > 30 µM (inactive).
Take `COc1ccc(C2CC(c3cccc(F)c3)=NN2c2ccc(S(N)(=O)=O)cc2)cc1` (centres undefined): the EC50 is > 30 µM (inactive).
Consider `COc1ccc(C2CC(c3ccccc3C)=NN2c2ccc(S(N)(=O)=O)cc2)cc1` (centres undefined), for which the EC50 was > 30 µM (inactive).
Regarding `COc1ccc(-c2cc(-c3ccccc3)nn2-c2ccc(S(N)(=O)=O)cc2)cc1`, the EC50 was > 30 µM (inactive).
As to `Cc1ccccc1C1CC(c2ccccc2)=NN1c1ccc(S(N)(=O)=O)cc1` (centres undefined), the EC50 was > 30 µM (inactive).
For `COc1ccc(C2CC(c3ccc(Cl)cc3)=NN2c2ccc(S(N)(=O)=O)cc2)cc1` (centres undefined), the EC50 was > 30 µM (inactive).
With `COc1ccc(C2CC(c3ccc(C)cc3)=NN2c2ccc(S(N)(=O)=O)cc2)cc1` (centres undefined), the EC50 was > 30 µM (inactive).
For `Cc1cccc(N2N=C(c3ccccc3)CC2c2ccccc2)c1` (centres undefined), the EC50 is > 30 µM (inactive).
Consider `COc1ccc(C2=NN(c3ccc(S(N)(=O)=O)cc3)C(c3ccc(OC)cc3)C2)cc1` (centres undefined), for which the EC50 was > 30 µM (inactive).
As for `COc1ccc(C2CC(c3ccccc3)=NN2c2ccc(Cl)c(C(=O)O)c2)cc1OC` (centres undefined), the EC50 is > 30 µM (inactive).
As for `COc1ccc(C2=NN(c3ccc(Cl)cc3)C(c3ccccc3F)C2)cc1` (centres undefined), the EC50 is > 30 µM (inactive).
In the case of `COc1ccc(C2CC(c3ccccc3)=NN2c2ccc(C(=O)O)cc2)cc1` (centres undefined), the EC50 was > 30 µM (inactive).
As to `COc1ccc(C2CC(c3cccc(Br)c3)=NN2c2ccc(S(N)(=O)=O)cc2)cc1` (centres undefined), the EC50 is > 30 µM (inactive).
As for `O=C(O)c1ccc(N2N=C(c3ccccc3)CC2c2ccccc2)cc1` (centres undefined), the EC50 is > 30 µM (inactive).
For `COc1ccccc1C1CC(c2ccccc2)=NN1c1ccc(S(N)(=O)=O)cc1` (centres undefined), the EC50 was > 30 µM (inactive).
In the case of `COc1ccc(C2=NN(c3ccccc3)C(c3ccccc3C(F)(F)F)C2)cc1` (centres undefined), the EC50 result was “inactive”.
With `COc1ccc(C2CC(c3ccc(F)cc3)=NN2c2ccccc2)cc1OC` (centres undefined), the EC50 is > 30 µM (inactive).
Same read-out and setting: as for `Clc1cccc(N2N=C(c3ccccc3)CC2c2ccccc2)c1` (centres undefined), the figure is > 30 µM (inactive); as for `COc1ccc(C2CC(c3cccnc3)=NN2c2ccc(S(N)(=O)=O)cc2)cc1` (centres undefined), > 30 µM (inactive); as for `COc1ccc(C2CC(c3ccsc3)=NN2c2ccc(S(N)(=O)=O)cc2)cc1` (centres undefined), > 30 µM (inactive).
With `NS(=O)(=O)c1ccc(N2N=C(c3ccccc3)CC2c2cccc(Cl)c2)cc1` (centres undefined), the EC50 was > 30 µM (inactive).
For `COc1cccc(C2CC(c3ccccc3)=NN2c2ccc(S(N)(=O)=O)cc2)c1` (centres undefined), the EC50 is > 30 µM (inactive).
For the compound `COc1ccc(C2CC(c3cccc(OC)c3)=NN2c2ccc(S(N)(=O)=O)cc2)cc1` (centres undefined), the EC50 was > 30 µM (inactive).
Take `NS(=O)(=O)c1ccc(N2N=C(c3ccc(Cl)cc3)CC2c2ccccc2)cc1` (centres undefined): the EC50 entry was “inactive”.
Turning to `COc1ccc(C2CC(c3cccc(C)c3)=NN2c2ccc(S(N)(=O)=O)cc2)cc1` (centres undefined), the EC50 was > 30 µM (inactive).
For the compound `CN(C)c1ccc(C2CC(c3ccc(F)cc3)=NN2c2ccccc2)cc1` (centres undefined), the EC50 was > 30 µM (inactive).
Take `Cc1ccc(-c2cc(C(F)(F)F)nn2-c2ccc(S(N)(=O)=O)cc2)cc1`: the EC50 was > 30 µM (inactive).
For `CCc1ccc(C2=NN(c3ccc(S(N)(=O)=O)cc3)C(c3ccc(F)cc3)C2)cc1` (centres undefined), the EC50 was > 30 µM (inactive).
For the compound `O=[N+]([O-])c1cccc(C2CC(c3ccc(F)cc3)=NN2c2ccccc2)c1` (centres undefined), the EC50 is > 30 µM (inactive).
Take `COc1ccc(C2CC(c3ccc(Br)cc3)=NN2c2ccccc2Cl)cc1` (centres undefined): the EC50 is > 30 µM (inactive).
As for `NS(=O)(=O)c1ccc(N2N=C(c3ccccc3)CC2c2ccc(Cl)cc2)cc1` (centres undefined), the EC50 is > 30 µM (inactive).
In the case of `COc1ccc(C2CC(c3ccc(N(C)C)cc3)=NN2c2ccc(S(N)(=O)=O)cc2)cc1` (centres undefined), the EC50 is > 30 µM (inactive).
Take `NS(=O)(=O)c1ccc(N2N=C(c3ccccc3)CC2c2ccc(Br)cc2)cc1` (centres undefined): the EC50 was > 30 µM (inactive).
The same measure, in the same setting: the value for `COc1ccc(C2CC(c3ccccc3Br)=NN2c2ccc(S(N)(=O)=O)cc2)cc1` (centres undefined) was > 30 µM (inactive).
In the case of `COc1ccc(C2=NN(c3cccc(F)c3)C(c3ccc(OC)cc3)C2)cc1` (centres undefined), the EC50 was > 30 µM (inactive).
As to `Brc1ccc(N2N=C(c3ccccc3)CC2c2ccccc2)cc1` (centres undefined), the EC50 was > 30 µM (inactive).
Consider `CC(=O)Oc1ccc(C2=NN(c3ccccc3)C(c3ccccc3)C2)cc1` (centres undefined), for which the EC50 was > 30 µM (inactive).
As to `COc1ccc(C2CC(c3ccccc3)=NN2c2ccc([N+](=O)[O-])cc2)cc1` (centres undefined), the EC50 was > 30 µM (inactive).
In the case of `NS(=O)(=O)c1ccc(N2N=C(c3ccccc3)CC2c2cccc(Br)c2)cc1` (centres undefined), the EC50 is > 30 µM (inactive).
Regarding `COc1ccc(C2CC(c3ccccc3Cl)=NN2c2ccc(S(N)(=O)=O)cc2)cc1` (centres undefined), the EC50 was > 30 µM (inactive).
Same read-out and setting: as for `Cc1ccccc1N1N=C(c2ccccc2)CC1c1cccc([N+](=O)[O-])c1` (centres undefined), the figure is > 30 µM (inactive); as for `COc1ccc(C2=NN(c3cccc(F)c3)C(c3ccc(Cl)cc3)C2)cc1` (centres undefined), > 30 µM (inactive).
Consider `O=S(=O)(c1ccc(N2N=C(c3ccc(Br)cc3)CC2c2ccccc2)cc1)C(F)F` (centres undefined), for which the EC50 result was “inactive”.
The same measure, in the same setting: as for `COc1ccc(C2CC(c3cccc(C(F)(F)F)c3)=NN2c2ccc(S(N)(=O)=O)cc2)cc1` (centres undefined), the figure is > 30 µM (inactive).
With `COc1ccc(C2CC(c3ccccc3)=NN2c2cccc(S(N)(=O)=O)c2)cc1` (centres undefined), the EC50 is > 30 µM (inactive).

Staying with this assay, now noted: GST-Ras beads, Bodipy-FL-GTP binding, measured here: Ki calculated from EC50.
What is called Ki is a measure of affinity in units of concentration, obtained from inhibition or displacement. In the case of `COc1ccc(C2=NN(c3ccccc3)C(c3ccc(Cl)cc3)C2)cc1` (centres undefined), the Ki is 0.24 µM.
As to `COc1ccc(C2=NN(c3ccccc3)C(c3ccccc3C(F)(F)F)C2)cc1` (centres undefined), the Ki was 1.19 µM.
In the case of `NS(=O)(=O)c1ccc(N2N=C(c3ccc(Cl)cc3)CC2c2ccccc2)cc1` (centres undefined), the Ki was 0.01 µM.
With `O=S(=O)(c1ccc(N2N=C(c3ccc(Br)cc3)CC2c2ccccc2)cc1)C(F)F` (centres undefined), the Ki was 0.18 µM.

These data come from PubChem BioAssay AID2050 (NMMLSC, 2009).
